Data: PubChem BioAssay (NCI)
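Method: 48-hour compound exposure of cells in 96-well plates, five concentrations, linear interpolation of endpoints. GI50 = concentration required for 50% inhibition of growth. Definition used: TGI = concentration required for complete inhibition of growth.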

How the values were obtained:
Experiment in all cases: growth of human tumour cells (NCI), 48 h
A549 NSCLC = system: A549 NSCLC
CCRF-CEM leukemia = system: CCRF-CEM leukemia
COLO 205 colon = system: COLO 205 colon
HCT-15 colon = system: HCT-15 colon
KM12 colon = system: KM12 colon
KM20L2 colon = system: KM20L2 colon
NCI-H23 lung = system: NCI-H23 lung
OVCAR-8 ovarian = system: OVCAR-8 ovarian
UACC-257 melanoma = system: UACC-257 melanoma
LOX IMVI melanoma = system: LOX IMVI melanoma

COC(=O)[C@H]1[C@H]2C[C@@H]3c4[nH]c5cc(OC)ccc5c4CCN3C[C@H]2C[C@@H](OC(=O)c2cc(OC)c(OC)c(OC)c2)[C@@H]1OC
TGI (A549 NSCLC): 55.5 µM
TGI (CCRF-CEM leukemia): 44.1 µM
TGI (COLO 205 colon): 33.6 µM
TGI (HCT-15 colon): 87.8 µM
TGI (KM12 colon): 41.7 µM
TGI (KM20L2 colon): 35.3 µM
TGI (NCI-H23 lung): 41.7 µM
TGI (OVCAR-8 ovarian): 49.6 µM
TGI (UACC-257 melanoma): 42.1 µM

COc1ccc(CN2C(=O)C(Cc3cc(OC)c(OC)c(C)c3OC)NC(=O)/C2=C/c2cc(OC)c(OC)c(C)c2OC)cc1 (stereo not given)
TGI (A549 NSCLC): > 100 µM
TGI (CCRF-CEM leukemia): 71.1 µM
TGI (COLO 205 colon): 47.4 µM
TGI (KM12 colon): > 100 µM
TGI (KM20L2 colon): 59.2 µM
TGI (LOX IMVI melanoma): > 100 µM
TGI (NCI-H23 lung): > 100 µM
TGI (OVCAR-8 ovarian): > 100 µM
TGI (UACC-257 melanoma): > 100 µM

CC1(C)OC(=O)[C@@](C)([C@H](O)c2ccccc2)O1
TGI (A549 NSCLC): > 100 µM
TGI (CCRF-CEM leukemia): > 100 µM
TGI (KM12 colon): > 100 µM
TGI (KM20L2 colon): > 100 µM
TGI (NCI-H23 lung): > 100 µM
TGI (OVCAR-8 ovarian): > 100 µM
TGI (UACC-257 melanoma): > 100 µM

O=C(c1ccccc1)C(c1ccccc1)C1(O)C(=O)Nc2ccccc21 (stereo not given)
TGI (A549 NSCLC): > 100 µM
TGI (CCRF-CEM leukemia): > 100 µM
TGI (COLO 205 colon): > 100 µM
TGI (HCT-15 colon): > 100 µM
TGI (KM20L2 colon): > 100 µM
TGI (LOX IMVI melanoma): > 100 µM
TGI (NCI-H23 lung): > 100 µM
TGI (OVCAR-8 ovarian): > 100 µM
TGI (UACC-257 melanoma): > 100 µM

CC(C)N(C(=O)C12C3C4C5C3C1(C(=O)N(C(C)C)C(C)C)C5(C#N)C42)C(C)C (stereo not given)
TGI (A549 NSCLC): > 100 µM
TGI (CCRF-CEM leukemia): 51.6 µM
TGI (COLO 205 colon): > 100 µM
TGI (HCT-15 colon): > 100 µM
TGI (KM12 colon): > 100 µM
TGI (KM20L2 colon): > 100 µM
TGI (LOX IMVI melanoma): 47.2 µM
TGI (NCI-H23 lung): > 100 µM
TGI (OVCAR-8 ovarian): > 100 µM
TGI (UACC-257 melanoma): > 100 µM

O=C(C/C(=N\NC(=O)C[n+]1ccccc1)C(=O)Nc1nc2ccc([N+](=O)[O-])cc2s1)CC(c1ccccc1)c1c(O)c2ccccc2oc1=O (stereo not given)
TGI (A549 NSCLC): > 100 µM
TGI (CCRF-CEM leukemia): > 100 µM
TGI (COLO 205 colon): > 100 µM
TGI (KM12 colon): > 100 µM
TGI (KM20L2 colon): > 100 µM
TGI (NCI-H23 lung): > 100 µM
TGI (OVCAR-8 ovarian): > 100 µM
TGI (UACC-257 melanoma): > 100 µM

C=C[C@@]1(C)CCC2(O)C(CCC3C2(C)CCC[C@@]3(C)COC(=O)CC(=O)OC)C1 (stereo not given in full)
TGI (A549 NSCLC): 35.9 µM
TGI (CCRF-CEM leukemia): > 100 µM
TGI (HCT-15 colon): 34.9 µM
TGI (KM12 colon): 32.6 µM
TGI (KM20L2 colon): 33.6 µM
TGI (LOX IMVI melanoma): 31.1 µM
TGI (NCI-H23 lung): 37.4 µM
TGI (OVCAR-8 ovarian): 55 µM
TGI (UACC-257 melanoma): 36.5 µM

CN1C(OCc2ccccc2)c2c(ccc3c2OCO3)C2C=Cc3cc4c(cc3C21)OCO4 (stereo not given)
TGI (CCRF-CEM leukemia): 1.05 µM
TGI (COLO 205 colon): 2.2 µM
TGI (HCT-15 colon): 1.83 µM
TGI (KM12 colon): 2.22 µM
TGI (KM20L2 colon): 2.95 µM
TGI (LOX IMVI melanoma): 0.337 µM
TGI (NCI-H23 lung): 2.68 µM
TGI (OVCAR-8 ovarian): 1.05 µM
TGI (UACC-257 melanoma): 2.68 µM

N#CNC(N)=NCCO
TGI (A549 NSCLC): > 100 µM
TGI (COLO 205 colon): > 100 µM
TGI (HCT-15 colon): > 100 µM
TGI (KM12 colon): > 100 µM
TGI (KM20L2 colon): > 100 µM
TGI (NCI-H23 lung): > 100 µM
TGI (OVCAR-8 ovarian): > 100 µM
TGI (UACC-257 melanoma): > 100 µM

CC1(C)C(c2ccccc2)=NN(O)c2ccccc21
TGI (A549 NSCLC): > 100 µM
TGI (CCRF-CEM leukemia): > 100 µM
TGI (COLO 205 colon): > 100 µM
TGI (HCT-15 colon): > 100 µM
TGI (KM12 colon): > 100 µM
TGI (KM20L2 colon): > 100 µM
TGI (NCI-H23 lung): > 100 µM
TGI (OVCAR-8 ovarian): > 100 µM
TGI (UACC-257 melanoma): > 100 µM

C=CCn1c(=O)c2cnc(Nc3ccc(N4CCN(C)CC4)cc3)nc2n1-c1ccc2c(n1)[C@@](O)(CC)CC2
GI50 (A549 NSCLC): 2000 nM
TGI (A549 NSCLC): 35.8 µM
GI50 (CCRF-CEM leukemia): 200 nM
TGI (CCRF-CEM leukemia): 1.81 µM
GI50 (COLO 205 colon): 336 nM
TGI (COLO 205 colon): 2.57 µM
GI50 (HCT-15 colon): 949 nM
TGI (HCT-15 colon): 13.8 µM
GI50 (KM12 colon): 391 nM
TGI (KM12 colon): 3.82 µM
GI50 (LOX IMVI melanoma): 1020 nM
TGI (LOX IMVI melanoma): 9.89 µM
GI50 (NCI-H23 lung): 250 nM
TGI (NCI-H23 lung): 1.42 µM
GI50 (OVCAR-8 ovarian): 573 nM
TGI (OVCAR-8 ovarian): 5.62 µM
GI50 (UACC-257 melanoma): 1750 nM
TGI (UACC-257 melanoma): 18.1 µM
